Test results taken from PubChem BioAssay (NCI).
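GI50 marks 50% less growth. Definition used: TGI = concentration required for complete inhibition of growth.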

Key:
Experiment in all cases: NCI tumour cell line growth inhibition, 384-well format
MOLT-4 leukemia = tested on: MOLT-4 leukemia
CCRF-CEM leukemia = tested on: CCRF-CEM leukemia
K-562 leukemia = tested on: K-562 leukemia
A498 renal = tested on: A498 renal
HS 578T breast = tested on: HS 578T breast
NCI-H226 lung = tested on: NCI-H226 lung
MDA-MB-435 melanoma = tested on: MDA-MB-435 melanoma
SK-MEL-2 melanoma = tested on: SK-MEL-2 melanoma
HCC-2998 colon = tested on: HCC-2998 colon
HCT-116 colon = tested on: HCT-116 colon
HCT-15 colon = tested on: HCT-15 colon
NCI/ADR-RES ovarian = tested on: NCI/ADR-RES ovarian
RPMI-8226 leukemia = tested on: RPMI-8226 leukemia

For `N#Cc1cnc(Nc2cc(NC[C@H]3CNCCO3)c(C(F)(F)F)cn2)cn1`, the GI50 (MOLT-4 leukemia) was 404 nM, the TGI (MOLT-4 leukemia) was 1340 nM and the GI50 (CCRF-CEM leukemia) was 333 nM. The TGI (CCRF-CEM leukemia) was 976 nM, the GI50 (K-562 leukemia) was 580 nM and the TGI (K-562 leukemia) was 2230 nM. The GI50 (A498 renal) was 234 nM, the TGI (A498 renal) was 531 nM and the GI50 (HS 578T breast) was 337 nM. It also gave a TGI (HS 578T breast) of 2220 nM, a GI50 (NCI-H226 lung) of 20100 nM and a TGI (NCI-H226 lung) of 54100 nM. It also gave a GI50 (MDA-MB-435 melanoma) of 1770 nM, a TGI (MDA-MB-435 melanoma) of 10500 nM and a GI50 (SK-MEL-2 melanoma) of 10800 nM. The TGI (SK-MEL-2 melanoma) was 22700 nM, the GI50 (HCC-2998 colon) was 402 nM and the TGI (HCC-2998 colon) was 3090 nM. The GI50 (HCT-116 colon) was 17500 nM, the TGI (HCT-116 colon) was 47500 nM and the GI50 (HCT-15 colon) was 5160 nM. For the same molecule, the TGI (HCT-15 colon) was > 65100 nM, the GI50 (NCI/ADR-RES ovarian) was 963 nM and the TGI (NCI/ADR-RES ovarian) was 2910 nM. It also gave a GI50 (RPMI-8226 leukemia) of 1210 nM and a TGI (RPMI-8226 leukemia) of 5280 nM.
